“And” between values parts separate entries of the source, which are not always exact repeats. Equal entries are not always repeated. Toxic doses and inconclusive results are not listed. The calls were made as follows: active = survival T/C of 150% or more; inactive = T/C below 125% in these data. Peptide text beside a SMILES is read from it. * marks the point of attachment. Cbz = O=C(OCc1ccccc1)*
Test system: P388 leukemia ip, CD2F1 mice, survival T/C
Assay: NCI In Vivo Anticancer Drug Screen. Data for tumor model P388 Leukemia (intraperitoneal) in CD2F1 (CDF1) mice
Conditions: endpoint: median survival time, higher = longer survival
Method in brief: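 Mice carrying the transplanted tumor received test compound or vehicle. Survival was recorded in each group, and the value is the treated-group measurement divided by that of the vehicle-treated control group.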

[1] = dose: 50.0 mg/kg/injection, schedule: Q01DX005 (ip), vehicle: Klucel (hydroxypropylcellulose) (HPC)
[2] = dose: 100.0 mg/kg/injection, schedule: Q01DX005 (ip), vehicle: Klucel (hydroxypropylcellulose) (HPC)
[3] = dose: 200.0 mg/kg/injection, schedule: Q01DX005 (ip), vehicle: Klucel (hydroxypropylcellulose) (HPC)
[4] = dose: 50.0 mg/kg/injection, schedule: Q01DX009 (ip), vehicle: saline with Tween-80
[5] = dose: 100.0 mg/kg/injection, schedule: Q01DX009 (ip), vehicle: saline with Tween-80
[6] = dose: 100.0 mg/kg/injection, schedule: Q01DX009 (ip), vehicle: saline
[7] = dose: 200.0 mg/kg/injection, schedule: Q01DX009 (ip), vehicle: saline
[8] = dose: 200.0 mg/kg/injection, schedule: Q01DX009 (ip), vehicle: saline with Tween-80
[9] = dose: 50.0 mg/kg/injection, schedule: Q01DX005 (ip), vehicle: saline with Tween-80
[10] = dose: 100.0 mg/kg/injection, schedule: Q01DX005 (ip), vehicle: saline with Tween-80
[11] = dose: 100.0 mg/kg/injection, schedule: Q04DX003 (ip), vehicle: saline with Tween-80
[12] = dose: 200.0 mg/kg/injection, schedule: Q01DX005 (ip), vehicle: saline with Tween-80
[13] = dose: 200.0 mg/kg/injection, schedule: Q04DX003 (ip), vehicle: saline with Tween-80
[14] = dose: 400.0 mg/kg/injection, schedule: Q04DX003 (ip), vehicle: saline with Tween-80
[15] = dose: 25.0 mg/kg/injection, schedule: Q01DX009 (ip), vehicle: saline
[16] = dose: 50.0 mg/kg/injection, schedule: Q01DX009 (ip), vehicle: saline
[17] = dose: 50.0 mg/kg/injection, schedule: Q01DX009 (ip), vehicle: Klucel (hydroxypropylcellulose) (HPC)
[18] = dose: 100.0 mg/kg/injection, schedule: Q01DX009 (ip), vehicle: Klucel (hydroxypropylcellulose) (HPC)
[19] = dose: 200.0 mg/kg/injection, schedule: Q01DX009 (ip), vehicle: Klucel (hydroxypropylcellulose) (HPC)
[20] = dose: 12.5 mg/kg/injection, schedule: Q01DX001 (ip), vehicle: Klucel (hydroxypropylcellulose) (HPC)
[21] = dose: 25.0 mg/kg/injection, schedule: Q01DX001 (ip), vehicle: Klucel (hydroxypropylcellulose) (HPC)
[22] = dose: 50.0 mg/kg/injection, schedule: Q01DX001 (ip), vehicle: Klucel (hydroxypropylcellulose) (HPC)
[23] = dose: 60.0 mg/kg/injection, schedule: Q01DX005 (ip), vehicle: Klucel (hydroxypropylcellulose) (HPC)
[24] = dose: 120.0 mg/kg/injection, schedule: Q01DX005 (ip), vehicle: Klucel (hydroxypropylcellulose) (HPC)
[25] = dose: 240.0 mg/kg/injection, schedule: Q01DX005 (ip), vehicle: Klucel (hydroxypropylcellulose) (HPC)
[26] = dose: 50.0 mg/kg/injection, schedule: Q04DX003 (ip), vehicle: saline with Tween-80

Measured: T/C

CC(O)C(NC(=O)OCc1ccccc1)C(=O)NC(Cc1ccccc1)C(=O)O (stereo not drawn) (Cbz-Thr-Phe-OH; configuration not given here)
inactive: [1] 100 % of control | [2] 101 % of control | [3] 101 % of control

CCCCCc1ccccc1O
inactive: [4] 100 % of control | [5] 95 % of control

Nc1cc(S(=O)(=O)c2ccc(O)c(N)c2)ccc1O
inactive: [6] 111 % of control and 92 % of control | [7] 102 % of control and 104 % of control | dose: 400.0 mg/kg/injection, schedule: Q01DX009 (ip), vehicle: saline 100 % of control and 95 % of control

COc1ccc(C2OC23Cc2ccccc2C3=O)cc1OC (stereo unspecified)
inactive: [4] 109 % of control | [5] 100 % of control | [8] 88 % of control

OC(CCl)Cn1nnc2ccccc21 (stereo unspecified)
inactive: [9] 103 % of control | [10] 100 % of control | [11] 93 % of control | [12] 94 % of control | [13] 98 % of control | [14] 99 % of control

CCN(CC)CC(C)C1NS(=O)(=O)c2ccccc21 (stereo unspecified)
inactive: dose: 1.56 mg/kg/injection, schedule: Q01DX009 (ip), vehicle: saline 107 % of control | dose: 3.12 mg/kg/injection, schedule: Q01DX009 (ip), vehicle: saline 98 % of control | dose: 6.25 mg/kg/injection, schedule: Q01DX009 (ip), vehicle: saline 100 % of control | [15] 88 % of control | [4] 86 % of control | [16] 87 % of control

O=C(O)c1ccccc1NC(=S)Nc1ccccc1C(F)(F)F
inactive: [17] 100 % of control | [18] 96 % of control | [19] 105 % of control

CCC(CO)N=C(C1=C(O)c2ccccc2C1=O)c1ccccc1 (stereo unspecified)
inactive: dose: 100.0 mg/kg/injection, schedule: Q04DX002 (ip), vehicle: saline with Tween-80 104 % of control | dose: 200.0 mg/kg/injection, schedule: Q04DX002 (ip), vehicle: saline with Tween-80 92 % of control

O=C1C=C2COC(O)CC2CC1 (stereo unspecified)
inactive: dose: 100.0 mg/kg/injection, schedule: Q04DX003 (ip), vehicle: Klucel (hydroxypropylcellulose) (HPC) 104 % of control | dose: 200.0 mg/kg/injection, schedule: Q04DX003 (ip), vehicle: Klucel (hydroxypropylcellulose) (HPC) 105 % of control | dose: 400.0 mg/kg/injection, schedule: Q04DX003 (ip), vehicle: Klucel (hydroxypropylcellulose) (HPC) 111 % of control

CC(=O)C1CCC=CC1Sc1ccccc1 (stereo unspecified)
inactive: [17] 103 % of control | dose: 100.0 mg/kg/injection, schedule: Q01DX001 (ip), vehicle: saline 93 % of control | [18] 96 % of control | dose: 200.0 mg/kg/injection, schedule: Q01DX001 (ip), vehicle: saline 101 % of control | [19] 121 % of control | dose: 400.0 mg/kg/injection, schedule: Q01DX001 (ip), vehicle: saline 98 % of control

COc1ccc(OCC2CN(C)CCC2c2ccccc2)cc1 (stereo unspecified)
inactive: dose: 12.5 mg/kg/injection, schedule: Q01DX009 (ip), vehicle: saline 99 % of control | [15] 100 % of control | [16] 101 % of control and 94 % of control

O=C1c2cc3c(-c4ccccc4)oc(-c4ccccc4)c3cc2C(=O)c2c(O)ccc(O)c21
inactive: dose: 6.25 mg/kg/injection, schedule: Q01DX005 (ip), vehicle: saline with Tween-80 94 % of control | dose: 12.5 mg/kg/injection, schedule: Q01DX005 (ip), vehicle: saline with Tween-80 94 % of control | dose: 25.0 mg/kg/injection, schedule: Q01DX005 (ip), vehicle: saline with Tween-80 94 % of control | [12] 99 % of control

O=C1CCc2cc(O)ccc21
inactive: [15] 108 % of control | [16] 94 % of control | [6] 98 % of control | [7] 100 % of control

CCN(CC)C(Cc1ccccc1)=NC(C)(C)C
inactive: [4] 94 % of control | [5] 88 % of control

CC1CC2=C(C1)C(C1(C)C(=O)CC3C(C1=O)C3(C)C)C(C)C2=O (stereo unspecified)
inactive: [20] 100 % of control | [21] 96 % of control | [22] 102 % of control | dose: 100.0 mg/kg/injection, schedule: Q01DX001 (ip), vehicle: Klucel (hydroxypropylcellulose) (HPC) 96 % of control

C=C(C)C1CC=C(C)CC1 (stereo unspecified)
inactive: [5] 95 % of control | [11] 100 % of control | [8] 104 % of control | [13] 104 % of control | dose: 400.0 mg/kg/injection, schedule: Q01DX009 (ip), vehicle: saline with Tween-80 114 % of control | [14] 109 % of control

CNC(=O)NC(c1ccc(F)cc1)c1cc2c(cc1O)OCO2 (stereo unspecified)
inactive: [23] 96 % of control | [24] 96 % of control | [25] 87 % of control

CCOc1ccc(NC(=O)N(c2ccnc3ccccc23)C(C)CCCN(CC)CC)cc1 (stereo unspecified)
inactive: [1] 98 % of control | [2] 103 % of control | [3] 98 % of control

C[Si](C)(C)CNC(=O)OCc1ccccc1
inactive: dose: 60.0 mg/kg/injection, schedule: Q01DX005 (ip), vehicle: saline 97 % of control | dose: 120.0 mg/kg/injection, schedule: Q01DX005 (ip), vehicle: saline 95 % of control | dose: 240.0 mg/kg/injection, schedule: Q01DX005 (ip), vehicle: saline 95 % of control

Cn1nc(-c2ccc(Cl)c(Cl)c2)nc2c(=O)n(C)c(=O)nc1-2
inactive: [20] 102 % of control | [21] 107 % of control | [22] 103 % of control and 114 % of control

Cc1ccccc1Nc1n[nH]c(=S)s1
inactive: [26] 95 % of control | [11] 100 % of control | [13] 95 % of control

C/C(=N/NC(N)=S)c1ccc2ccccc2c1
inactive: dose: 0.75 mg/kg/injection, schedule: Q01DX009 (ip), vehicle: saline with Tween-80 109 % of control | dose: 1.5 mg/kg/injection, schedule: Q01DX009 (ip), vehicle: saline with Tween-80 110 % of control | dose: 3.0 mg/kg/injection, schedule: Q01DX009 (ip), vehicle: saline with Tween-80 108 % of control | dose: 5.33 mg/kg/injection, schedule: Q01DX009 (ip), vehicle: saline with Tween-80 117 % of control | dose: 6.0 mg/kg/injection, schedule: Q01DX009 (ip), vehicle: saline with Tween-80 121 % of control

COc1ccc(C2OC3=C(Nc4ccc([N+](=O)[O-])cc4N3)C2=O)cc1OC (stereo unspecified)
inactive: [23] 89 % of control | [24] 93 % of control | [25] 89 % of control

N#Cc1c2c(c(=S)n(-c3ccc(Cl)cc3)c1N)CCCC2
inactive: dose: 60.0 mg/kg/injection, schedule: Q01DX005 (ip), vehicle: Klucel + Tween-80 92 % of control | dose: 120.0 mg/kg/injection, schedule: Q01DX005 (ip), vehicle: Klucel + Tween-80 91 % of control | dose: 240.0 mg/kg/injection, schedule: Q01DX005 (ip), vehicle: Klucel + Tween-80 91 % of control

O=C(CNC(=O)n1ccnc1)N/N=C/c1ccco1
inactive: [9] 95 % of control | [10] 92 % of control | [12] 89 % of control

COc1cc(CNNc2ccc(NC(C)=O)cc2N)ccc1OC(C)=O
inactive: dose: 25.0 mg/kg/injection, schedule: Q04DX003 (ip), vehicle: saline with Tween-80 94 % of control | [26] 91 % of control | [11] 86 % of control

CC(=O)O.[Bi]
inactive: [23] 97 % of control | [24] 96 % of control | [25] 99 % of control

O=C1Nc2cnc(Cl)nc2Nc2ccccc21
inactive: [1] 99 % of control | [2] 91 % of control | [3] 101 % of control
